Reference: US20230089899A1, “METHOD FOR NON-TARGETED CHARACTERISATION OF A SOLUTION COMPRISING A PLURALITY OF SOLUTES” (COMMISSARIAT A L'ENERGIE ATOMIQUE ET AUX ENERGIES …, priority 2021, published 2023)

Legend:
[1] = theoretical log D; cited from earlier work
physchem = assay: physchem
Description: The total quantity of moles of the solutes in the mixture (i.e. n0) is approximately 5×10^−4 moles. The pH of the mixture is approximately 7.4 (phosphate buffer: PBS).
A sequence of 3 rows of partitions—as illustrated in FIG. 2—is applied to the mixture by using hydrated n-octanol for the partition of the aqueous mixture and that of the aqueous phases issued from the partitions of rows 1 and 2 (i.e. the phases φ11, φ21 and φ23), and an aqueous solution comprising PBS buffer having a pH of 7 in distilled water for the partition of the organic phases issued from the partitions of rows 1 and 2 (i.e. the phases φ12, φ22 and φ24).
The concentration of each solute in the phases issued from the partitions of rows 1, 2 and 3 (i.e. the phases φ11 to φ38) is monitored by UV-visible spectroscopy but only with the goal of verifying the proper running of the experiment.

[2] = pH 7.4, experimental log D, log D of the solutes as verified experimentally, hydrated n-octanol/PBS buffer, UV-visible spectroscopy
[3] = pH 7.4, log D, in the experimental conditions used for this validation, n-octanol/aqueous phase, pH approximately 7.4 (PBS)

Compound	log D^THEOR [1]	logD (physchem; [2])	logD (physchem; [3])
CC(C)(c1ccc(O)cc1)c1ccc(O)cc1 [BPA, bisphenol A]	3.32		
c1ccc2[nH]cnc2c1 [Benzimidazole, benzimidazole]		1.33	1.34
Cn1c(=O)c2[nH]cnc2n(C)c1=O [Theophylline, theophylline]		0.01	-0.02
CC(C)=O [acetone]	~−0.24		
